Measurements reported in paper PMC9743092, “Membrane-Active Cyclic Amphiphilic Peptides: Broad-Spectrum Antibacterial Activity Alone and in Combination with Antibiotics” (Journal of Medicinal Chemistry, 2022).
In brackets after ≈: the same amount, converted by molar mass. Like-named read-outs stand apart in the source and are kept apart here. Bridge positions count the residues as written; N and C are the ends. Square brackets hold non-standard residues; d marks the D form. Peptide text beside a SMILES is read from it. * marks the point of attachment. X1 = CC[C@H](C)CCCCC(=O)*; Dab = NCC[C@H](N)C(=O)O

Tests used:
[1] = design: method as in PMID 25808204; settings: cited from earlier work
[2] = tested on: MRSA (ATCC BAA-1556); settings: antibiotic alone or physical mixture with peptide (1:1 w/w)
[3] = tested on: E. coli (ATCC 25922); settings: antibiotic alone or physical mixture with peptide (1:1 w/w)
[4] = tested on: K. pneumoniae (ATCC BAA-1705); test: microbe, parasite or virus in culture; settings: Klebsiella pneumoniae, ATCCBAA1705, 24 h, read-out: MBC K. pneumoniae (ATCC BAA-1705)
[5] = tested on: MRSA (ATCC BAA-1556); test: microbe, parasite or virus in culture; settings: Staphylococcus aureus, ATCCBAA1556|MRSA, 24 h, read-out: MBC MRSA (ATCC BAA-1556)
[6] = tested on: S. aureus (ATCC BAA-1556); test: Synergistic checkerboard assay; format: cell-based; settings: Staphylococcus aureus
[7] = tested on: P. aeruginosa (ATCC 27883); test: microbe, parasite or virus in culture; settings: Pseudomonas aeruginosa, ATCC27883, 24 h, read-out: MBC P. aeruginosa (ATCC 27883)
[8] = tested on: E. coli (ATCC 25922); test: microbe, parasite or virus in culture; settings: Escherichia coli, ATCC25922, 24 h, read-out: MBC E. coli (ATCC 25922)
[9] = tested on: E. coli (ATCC 25922); settings: 24 h, ≥99.9% kill
[10] = tested on: human red blood cells (hRBCs); settings: red cells of human, 2 h
[11] = tested on: P. aeruginosa (ATCC 27883); settings: 24 h, ≥99.9% kill
[12] = tested on: K. pneumoniae (ATCC BAA-1705); settings: 24 h, ≥99.9% kill
[13] = tested on: E. coli (ATCC 25922); test: microbe, parasite or virus in culture; settings: Escherichia coli, ATCC25922, read-out: MIC E. coli (ATCC 25922)
[14] = tested on: E. coli (ATCC 25922); test: Synergistic checkerboard assay; format: cell-based; settings: Escherichia coli
[15] = tested on: P. aeruginosa (ATCC 27883); test: Synergistic checkerboard assay; format: cell-based; settings: Pseudomonas aeruginosa
[16] = tested on: MRSA (ATCC BAA-1556); test: microbe, parasite or virus in culture; settings: Staphylococcus aureus
[17] = tested on: P. aeruginosa (ATCC 27883); test: microbe, parasite or virus in culture; settings: Pseudomonas aeruginosa, ATCC27883, read-out: MIC P. aeruginosa (ATCC 27883)
[18] = tested on: K. pneumoniae (ATCC BAA-1705); test: microbe, parasite or virus in culture; settings: Klebsiella pneumoniae, ATCCBAA1705, read-out: MIC K. pneumoniae (ATCC BAA-1705)
[19] = tested on: K. pneumoniae (ATCC 13883); test: microbe, parasite or virus in culture; format: cell-based; settings: Klebsiella pneumoniae, ATCC13883, read-out: MIC K. pneumoniae (ATCC 13883)
Method: (§1) Daptomycin and polymyxin B were selected as positive controls against Gram-positive and Gram-negative bacteria, respectively.
(§2) All experiments were conducted in triplicate.

[20] = tested on: Acinetobacter baumannii (ATCCBAA-1605); test: microbe, parasite or virus in culture; format: cell-based; settings: ATCCBAA1605, read-out: MIC Acinetobacter baumannii (ATCCBAA-1605)
Method: as §1, §2

[21] = tested on: E. coli (ATCC BAA-2452); test: microbe, parasite or virus in culture; format: cell-based; settings: Escherichia coli, ATCCBAA2452, read-out: MIC E. coli (ATCC BAA-2452)
Method: as §1, §2

[22] = tested on: P. aeruginosa (ATCC BAA-1744); test: microbe, parasite or virus in culture; format: cell-based; settings: Pseudomonas aeruginosa, ATCCBAA1744, read-out: MIC P. aeruginosa (ATCC BAA-1744)
Method: as §1, §2

[23] = tested on: P. aeruginosa (ATCC 10145); test: microbe, parasite or virus in culture; format: cell-based; settings: Pseudomonas aeruginosa, ATCC10145, read-out: MIC P. aeruginosa (ATCC 10145)
Method: as §1, §2

[24] = tested on: K. pneumoniae (ATCC BAA-1705); test: Synergistic checkerboard assay; settings: Klebsiella pneumoniae, ATCCBAA1705, read-out: MIC antibiotic alone
[25] = tested on: S. aureus (ATCC 29213), MRSA (ATCC BAA-1556), E. coli (ATCC 25922), E. coli (ATCC BAA-2452); test: Serial passage resistance development study; format: cell-based, S. aureus and E. coli; settings: 18 repeated passages
[26] = ATCCBAA1556, checkerboard, read-out: MIC antibiotic alone
[27] = read-out: MIC MRSA (ATCC BAA-1556)

| SMILES | MIC S. aureus (ATCC BAA-1556) [2] | MBC [4] | MBC [5] | MIC [6, 26] | MBC [7] | MBC [8] | MIC [13] | MIC [16, 27] | MIC [17] | also measured |
| --- | --- | --- | --- | --- | --- | --- | --- | --- | --- | --- |
| N=C(N)NCCC[C@H](N)C(=O)O [arginine] |  |  |  |  |  |  |  |  |  | pKa value of the arginine guanidinium group [1]: 13.8 ± 0.1 |
| O=C(O)c1cn(C2CC2)c2cc(N3CCNCC3)c(F)cc2c1=O [ciprofloxacin] | 16 µg/mL (≈ 48.3 µM) | 16 µg/mL (≈ 48.3 µM) | 32 µg/mL (≈ 96.6 µM) | 16 µg/mL | 8 µg/mL (≈ 24.1 µM) | 16 µg/mL (≈ 48.3 µM) |  |  |  | MIC E. coli (ATCC 25922) [3]: 64 µg/mL (≈ 193 µM) |
| N=C(N)NCCC[C@@H]1NC(=O)[C@H](CCCNC(=N)N)NC(=O)[C@H](CCCNC(=N)N)NC(=O)[C@H](Cc2c[nH]c3ccccc23)NC(=O)[C@H](Cc2c[nH]c3ccccc23)NC(=O)[C@H](Cc2c[nH]c3ccccc23)NC(=O)[C@H](Cc2c[nH]c3ccccc23)NC(=O)[C@H](CCCNC(=N)N)NC1=O [compound 1, [R4W4]] (cyclo(RRRRWWWW)) |  |  |  |  |  |  |  |  |  | MBC E. coli (ATCC 25922) [9]: 32 µg/mL (≈ 23.4 µM); HC50 [10]: 175 µg/mL; MBC P. aeruginosa (ATCC 27883) [11]: 128 µg/mL (≈ 93.5 µM); MBC K. pneumoniae (ATCC BAA-1705) [12]: 64 µg/mL (≈ 46.7 µM) |
| C[C@@H](O)[C@H]1C(=O)N2C(C(=O)O)=C(S[C@@H]3CN[C@H](C(=O)N(C)C)C3)[C@H](C)[C@H]12 [meropenem] |  | 64 µg/mL (≈ 167 µM) | 8 µg/mL (≈ 20.9 µM) | 2 µg/mL | 4 µg/mL (≈ 10.4 µM) | 2 µg/mL (≈ 5.22 µM) | 1 µg/mL (≈ 2.61 µM) | 2 µg/mL (≈ 5.22 µM) | 1 µg/mL (≈ 2.61 µM) | MIC ([14]; ATCC25922, checkerboard, read-out: MIC antibiotic alone): 1 µg/mL; MIC ([15]; ATCC27883, checkerboard, read-out: MIC antibiotic alone): 1 µg/mL; MIC ([16]; read-out: MIC S. aureus (ATCC BAA-1556)): 2 µg/mL (≈ 5.22 µM) |
| CC[C@H](C)CCCCC(=O)N[C@@H](CCN)C(=O)N[C@H](C(=O)N[C@@H](CCN)C(=O)N[C@H]1CCNC(=O)[C@H]([C@@H](C)O)NC(=O)[C@H](CCN)NC(=O)[C@H](CCN)NC(=O)[C@H](CC(C)C)NC(=O)[C@@H](Cc2ccccc2)NC(=O)[C@H](CCN)NC1=O)[C@@H](C)O [polymyxin B] (X1-[Dab]T[Dab][Dab][Dab][dF]L[Dab][Dab]T; lactam 4-C) | 64 µg/mL (≈ 53.2 µM) | 2 µg/mL (≈ 1.66 µM) |  |  | 2 µg/mL (≈ 1.66 µM) | 4 µg/mL (≈ 3.32 µM) | 2 µg/mL (≈ 1.66 µM) | 64 µg/mL (≈ 53.2 µM) | 1 µg/mL (≈ 0.831 µM) | MIC [18]: 1 µg/mL (≈ 0.831 µM); MIC [19]: 1 µg/mL (≈ 0.831 µM); MIC [20]: 1 µg/mL (≈ 0.831 µM); MIC [21]: 1 µg/mL (≈ 0.831 µM); MIC [22]: 2 µg/mL (≈ 1.66 µM); MIC [23]: 2 µg/mL (≈ 1.66 µM); MIC ([14]; ATCC25922, read-out: MIC antibiotic alone): 2 µg/mL; MIC ([15]; ATCC27883, read-out: MIC antibiotic alone): 1 µg/mL; MIC [24]: 1 µg/mL; MIC ([6]; ATCCBAA1556, read-out: MIC antibiotic alone): 64 µg/mL; change in MIC on resistance induction [25]: negligible changes in the MICs |
